From ChEMBL document CHEMBL1201862, “PubChem BioAssay data set” (2004)
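How tested: cells in 96-well plates exposed to compound for 48 hours at five concentrations. The concentration for 50% growth inhibition is given as GI50.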 Calls of active or inactive are those of the source. Rule as the data show it: active = GI50 up to about 1.1 µM and inactive = higher.

Columns and labels:
Assay in all cases: NCI anticancer screen, dose series, 48 h
SF-539 = tested on: SF-539
SK-MEL-28 = tested on: SK-MEL-28
SNB-78 = tested on: SNB-78
RXF 393 = tested on: RXF 393
OVCAR-8 = tested on: OVCAR-8
SK-MEL-5 = tested on: SK-MEL-5
SNB-75 = tested on: SNB-75
OVCAR-4 = tested on: OVCAR-4
LXFL 529 = tested on: LXFL 529
COLO 205 = tested on: COLO 205
M19-MEL = tested on: M19-MEL
SR = tested on: SR
SK-OV-3 = tested on: SK-OV-3
A549 = tested on: A549
DMS-273 = tested on: DMS-273
DMS-114 = tested on: DMS-114
CCRF-CEM = tested on: CCRF-CEM
RXF 631 = tested on: RXF 631
MCF7 = tested on: MCF7
NCI/ADR-RES = tested on: NCI/ADR-RES

## CN(CCO)/N=N/c1[nH]cnc1C(N)=O
SF-539
  GI50: > 100 µM (inactive)
SK-MEL-28
  GI50: > 100 µM (inactive)
SNB-78
  GI50: > 100 µM (inactive)
RXF 393
  GI50: > 100 µM (inactive)
OVCAR-8
  GI50: 45.7 µM (inactive)
SK-MEL-5
  GI50: > 100 µM (inactive)
SNB-75
  GI50: 26.8 µM (inactive)
OVCAR-4
  GI50: > 100 µM (inactive)
LXFL 529
  GI50: > 100 µM (inactive)
COLO 205
  GI50: > 100 µM (inactive)
M19-MEL
  GI50: > 100 µM (inactive)
SR
  GI50: 39.7 µM (inactive)
SK-OV-3
  GI50: 30.9 µM (inactive)
A549
  GI50: > 100 µM (inactive)
DMS-273
  GI50: 49.9 µM (inactive)
DMS-114
  GI50: > 100 µM (inactive)
CCRF-CEM
  GI50: 21.5 µM (inactive)

## C=C(C)C1Cc2c(c3ccccc3n(C)c2=O)O1 (configuration not stated)
SF-539
  GI50: > 100 µM (inactive)
SK-MEL-28
  GI50: > 100 µM (inactive)
SNB-78
  GI50: > 100 µM (inactive)
OVCAR-8
  GI50: > 100 µM (inactive)
SK-MEL-5
  GI50: > 100 µM (inactive)
SNB-75
  GI50: > 100 µM (inactive)
LXFL 529
  GI50: > 100 µM (inactive)
COLO 205
  GI50: > 100 µM (inactive)
M19-MEL
  GI50: > 100 µM (inactive)
RXF 631
  GI50: > 100 µM (inactive)
SK-OV-3
  GI50: > 100 µM (inactive)
DMS-114
  GI50: > 100 µM (inactive)
CCRF-CEM
  GI50: > 100 µM (inactive)

## CC(=O)Nc1ccc(Sc2nnc(NC(C)=O)s2)cc1
SF-539
  GI50: > 100 µM (inactive)
SK-MEL-28
  GI50: > 100 µM (inactive)
MCF7
  GI50: > 100 µM (inactive)
OVCAR-8
  GI50: > 100 µM (inactive)
SK-MEL-5
  GI50: > 100 µM (inactive)
SNB-75
  GI50: > 100 µM (inactive)
OVCAR-4
  GI50: > 100 µM (inactive)
COLO 205
  GI50: > 100 µM (inactive)
SR
  GI50: > 100 µM (inactive)
SK-OV-3
  GI50: > 100 µM (inactive)
A549
  GI50: > 100 µM (inactive)
NCI/ADR-RES
  GI50: > 100 µM (inactive)
CCRF-CEM
  GI50: > 100 µM (inactive)

## COc1cc(C2c3cc4c(cc3[C@@H](Nc3ccccc3)C3COC(=O)[C@H]23)OCO4)cc(OC)c1O (some centres not stated)
SF-539
  GI50: 0.322 µM (active)
SK-MEL-28
  GI50: 2.72 µM (inactive)
SNB-78
  GI50: 2.37 µM (inactive)
MCF7
  GI50: 0.0715 µM (active)
RXF 393
  GI50: 1.73 µM (inactive)
OVCAR-8
  GI50: 1.18 µM (inactive)
SK-MEL-5
  GI50: 0.787 µM (active)
SNB-75
  GI50: 0.875 µM (active)
OVCAR-4
  GI50: 5.6 µM (inactive)
COLO 205
  GI50: 1.92 µM (inactive)
M19-MEL
  GI50: 1.55 µM (inactive)
SK-OV-3
  GI50: 0.845 µM (active)
A549
  GI50: 0.0156 µM (active)
DMS-273
  GI50: 0.142 µM (active)
NCI/ADR-RES
  GI50: 2.07 µM (inactive)
DMS-114
  GI50: 0.687 µM (active)
CCRF-CEM
  GI50: 0.0279 µM (active)

## N#CCCN(CCC#N)c1ccc(/C=C(/NC(=O)Nc2ccccc2Cl)NC(=O)c2cc([N+](=O)[O-])ccc2Cl)cc1
SF-539
  GI50: > 100 µM (inactive)
SK-MEL-28
  GI50: > 100 µM (inactive)
SNB-78
  GI50: > 100 µM (inactive)
RXF 393
  GI50: > 100 µM (inactive)
OVCAR-8
  GI50: 58.5 µM (inactive)
SK-MEL-5
  GI50: > 100 µM (inactive)
OVCAR-4
  GI50: > 100 µM (inactive)
LXFL 529
  GI50: > 100 µM (inactive)
COLO 205
  GI50: > 100 µM (inactive)
M19-MEL
  GI50: > 100 µM (inactive)
SR
  GI50: 42.4 µM (inactive)
RXF 631
  GI50: > 100 µM (inactive)
SK-OV-3
  GI50: > 100 µM (inactive)
A549
  GI50: > 100 µM (inactive)
DMS-273
  GI50: > 100 µM (inactive)
DMS-114
  GI50: > 100 µM (inactive)
CCRF-CEM
  GI50: 17.3 µM (inactive)
